According to ChEMBL document CHEMBL2040728, “New substituted 4H-chromenes as anticancer agents” (Bioorg Med Chem Lett, 2012):
Calls of active or inactive are those of the source. The calls are words filed in the database; no cut-off is given here.

What was measured:
LNCaP = test: Antiproliferative activity against human LNCAP cells after 96 hrs by SRB assay; type: functional, cell-based
[1] = Antiproliferative activity against human paclitaxel-resistant PC3-TxR cells after 96 hrs by SRB assay; type: functional, cell-based
PC-3 = test: Antiproliferative activity against human PC3 cells after 96 hrs by SRB assay; type: functional, cell-based; conditions: PC-3, 96 h
[2] = Antiproliferative activity against human WM164 cells after 48 hrs by SRB assay; type: functional, cell-based; conditions: WM164, 48 h
A-375 = test: Antiproliferative activity against human A375 cells after 48 hrs by SRB assay; type: functional, cell-based; conditions: A-375, 48 h
Bos taurus [3] = species: Bos taurus; test: Inhibition of bovine brain tubulin polymerization at 5 uM after 20 mins by spectrophotometric analysis relative to control
T98G = test: Antiproliferative activity against human T98G cells after 5 days by MTT assay; type: functional, cell-based; conditions: 120 h
[4] = Antiproliferative activity against human U87 cells after 5 days by MTT assay; type: functional, cell-based, U-87MG ATCC; conditions: U-87 MG, 120 h
[5] = Antiproliferative activity against human LN18 cells after 5 days by MTT assay; type: functional, cell-based; conditions: LN-18, 120 h
[6] = Antiproliferative activity against human A172 cells after 5 days by MTT assay; type: functional, cell-based; conditions: A 172, 120 h
[7] = Cytotoxicity against mouse primary astrocytes after 5 days by MTT assay; type: cell-based; conditions: Astrocyte, 120 h
Bos taurus [8] = species: Bos taurus; test: Inhibition of bovine brain tubulin polymerization after 20 mins by spectrophotometric analysis
Bos taurus [9] = species: Bos taurus; test: Inhibition of bovine brain tubulin polymerization at 10 uM after 20 mins by spectrophotometric analysis
Bos taurus [10] = species: Bos taurus; test: Inhibition of bovine brain tubulin polymerization at 20 uM after 20 mins by spectrophotometric analysis

| IC50 (LNCaP) [µM] | IC50 (PC-3) [µM] | IC50 (A-375) [µM] | inhibition (Bos taurus [3]) | inhibition (Bos taurus [8]) | inhibition (Bos taurus [9]) [%] | inhibition (Bos taurus [10]) [%] | Compound | IC50 [1] [µM] | IC50 [2] [µM] | IC50 (T98G) [µM] | IC50 [4] [µM] | IC50 [5] [µM] | IC50 [6] [µM] | IC50 [7] [µM] |
| --- | --- | --- | --- | --- | --- | --- | --- | --- | --- | --- | --- | --- | --- | --- |
| 0.28 | 0.39 | 0.14 | – | – | – | – | CN(C)c1ccc2c(c1)OC(N)=C(C#N)C2c1cccc2c(Br)cccc12 (centres undefined) | 0.21 | 0.22 | – | – | – | – | – |
| – | – | – | inactive | – | – | – | CC(=O)O[C@H]1C(=O)[C@@]2(C)[C@H]([C@H](OC(=O)c3ccccc3)[C@]3(O)C[C@H](OC(=O)[C@H](O)[C@@H](NC(=O)c4ccccc4)c4ccccc4)C(C)=C1C3(C)C)[C@]1(OC(C)=O)CO[C@@H]1C[C@@H]2O | – | – | – | – | – | – | – |
| 0.14 | 0.22 | 0.08 | – | Dose-dependent effect | 29 | 68 | CN(C)c1ccc2c(c1)OC(N)=C(C#N)C2c1ccc(N(C)C)c2ccccc12 (centres undefined) | 0.23 | 0.16 | 0.0125 | 0.0206 | 0.0133 | 0.0074 | 2.03 |
| – | – | – | – | – | – | – | Cn1nnc2c(C(N)=O)ncn2c1=O [TEMOZOLOMIDE] | – | – | 570 | 49 | 390 | 65 | > 1000 |
